These results are taken from PMC7464201, “Synthesis and Cytotoxic Activity of Novel C-23-Modified Asiatic Acid Derivatives” (Molecules, 2020).

Data set [1] concerns HepG2 cells. The data set can be described thus: MTT cytotoxicity assay, HepG2. It is filed as cell-based. Particulars: Homo sapiens, 72 h, mean ± SD of three independent experiments. The method, then: (§1) HCT116, SKOV-3, A549, A2780, HepG2, HL-60 and MCF-7 cells were incubated in DMEM with 10% heat-inactivated FBS in a humidified atmosphere of 5.0% CO2 at 37 °C. The in-vitro cytotoxicity of AA derivatives was determined using MTT assay. A 100-μL volume of culture medium at a concentration of 3 × 10^4 cell/mL was added to 96-well plate wells, which were maintained in a humidified atmosphere of 5.0% CO2 at 37 °C. After 24 h, 10 μL solution of AA derivatives and doxorubicin dissolved in DMSO and phophate buffered saline (PBS) and then diluted with DMEM under a concentration gradient, was added in the wells for final concentrations of 100, 10, 1, 0.1, 0.01, 0.001 μM of compounds in HCT116 and SKOV-3 cells and 125, 25, 5, 1, 0.2, 0.04 μM in A549, A2780, HepG2, HL-60 and MCF-7 cells. After 72 h incubation in a humidified atmosphere of 5.0% CO2 at 37 °C, 20 μl MTT solution (5 mg/mL) was added into each well and the cells were incubated. After 4 h, 100 μL HCl aqueous solution (0.01 M) with 10% SDS and 5% isobutanol was added into each well to dissolve the precipitated formazan and the absorbance was read at 570 nm on Thermo Scientific Varioskan Flash plate reader. All IC50 values were averaged from three independent experiments.

The subject of data set [2] is A2780 cells. The data set can be described thus: MTT cytotoxicity assay, A2780. It is filed as cell-based. Particulars: Homo sapiens, 72 h, mean ± SD of three independent experiments. The method, then:
as §1
Background: Formazan colour is commonly taken as a measure of viable cells.

For data set [3], the system named is human normal cell line (HUVEC). The data set can be described thus: CCK-8 cytotoxicity assay, human normal cell line HUVEC. The data set is classed as cell-based. Particulars: for cytotoxic effect on HUVEC cell viability: CCK-8, concentrations of 125, 25, 5, 1, 0.2, 0.04 μM, 72 h; for IC50: HUVEC, CCK-8, 72 h, human normal cell line. The method, then:
Additionally, the cytotoxic activities of compounds 10, 14j and 14k were evaluated against one human normal cell line (HUVEC) using CCK-8 assay (Table 3).
HUVEC cell lines were incubated in DMEM with 10% heat-inactivated FBS in a humidified atmosphere of 5.0% CO2 at 37 °C. The in-vitro cytotoxicity of AA derivatives was determined using CCK-8. A 100-μL volume of culture medium at a concentration of 3 × 10^4 cell/mL was added to 96-well plate wells, and these were maintained in a humidified atmosphere of 5.0% CO2 at 37 °C. After 24 h, 10 μL solution of AA derivatives dissolved in DMSO and PBS and then diluted with DMEM under a concentration gradient was added to the wells for final concentrations of 125, 25, 5, 1, 0.2, 0.04 μM. After 72 h incubation in a humidified atmosphere of 5.0% CO2 at 37 °C, 10 μl CCK-8 solution was added into each well and the cells were incubated for another 1 h, and the absorbance was read at 450 nm. All cell viability levels were averaged from three independent experiments.

Data set [4] deals with MCF-7 cells. In words: MTT cytotoxicity assay, MCF-7. It is filed as cell-based. Particulars: Homo sapiens, MCF7, 72 h, mean ± SD of three independent experiments. The method, then: as §1
Data set [5] concerns A549 cells. In words: MTT cytotoxicity assay, A549. Particulars: Homo sapiens, 72 h, mean ± SD of three independent experiments. It is filed as cell-based. The procedure: as §1
Another data set deals with HL-60 cells. In words: MTT cytotoxicity assay, HL-60. Particulars: Homo sapiens, 72 h, mean ± SD of three independent experiments. The data set is classed as cell-based. The method, then: as §1
Data set [6] concerns human ovarian cancer cells (A2780). Details: method as in PMID 27416552, PMID 24268794. Particulars: read-out: EC50 against human ovarian cancer cells (A2780); cited from earlier work.
The test system of data set [7] is A549 cells. Also on record: method as in PMID 31057738. Particulars: literature value for AA; cited from earlier work.
In data set [8] the test system is A2780 cells. Also on record: method as in PMID 30278332. Particulars: literature value for AA; cited from earlier work.
The subject of data set [9] is HepG2 cells. Details: method as in PMID 31057738. Particulars: literature value for AA; cited from earlier work.
In data set [10] the test system is human normal cell line (HUVEC). Details: method as in PMID 25151580. Particulars: literature value for AA; cited from earlier work.
The subject of data set [11] is human colon (HCT-116) cancer cell line. The data set can be described thus: MTT cytotoxicity assay, HCT116. The data set is classed as cell-based. Particulars: for IC50: Homo sapiens, HCT-116, MTT, 72 h, six concentrations, mean ± SD of three independent experiments. The method, then: (§2) To establish a SAR of the C-3 (R2) and C-23 (R1) of the AA derivatives, new compounds were subjected to MTT assays to evaluate their in-vitro antiproliferative activities against ovarian (SKOV-3) and colon (HCT-116) cancer cell lines, the IC50 values (the concentration that inhibits 50% of cell growth) of which are summarized in Table 1. Doxorubicin was used as the positive drug.
as §1

The subject of data set [12] is MCF-7 cells. Also on record: method as in PMID 26974379. Particulars: literature value for AA; cited from earlier work.
Data set [13] deals with human ovarian (SKOV-3) cancer cell line. The data set can be described thus: MTT cytotoxicity assay, SKOV-3. It is filed as cell-based. Particulars: Homo sapiens, SK-OV-3; MTT, 72 h, six concentrations, mean ± SD of three independent experiments. The procedure: as §2, §1

Like-named read-outs stand apart in the source and are kept apart here.

Consider `CO[C@@H]1C[C@@]2(C)[C@@H](CC[C@]3(C)[C@@H]2CC=C2[C@@H]4[C@@H](C)[C@H](C)CC[C@]4(C(=O)NCc4ccccc4)CC[C@]23C)[C@](C)(C(=O)N2CCN(C)CC2)[C@H]1OC(C)=O` [Compound 14k, α-Methoxy-3β-Acetoxy-Urs-12-Ene-28-Benzylamide-23-(4-Methyl-1-Piperazinyl)-Amide], for which the IC50 (in general, the concentration that gives 50% inhibition) was 2.84 ± 0.46 µM with HepG2 cells [1]; 4.31 ± 0.58 µM in the data set with A2780 cells [2]; greater than 125 µM in data set [3]; 1.78 ± 0.38 µM in the data set on MCF-7 cells [4]; 4.04 ± 0.51 µM in the data set on A549 cells [5]; 3.36 ± 0.66 µM in the data set on HL-60 cells. In addition, in data set [3], the “cytotoxic effect on HUVEC cell viability” value is “no cytotoxic effect”.

For the molecule `CC(=O)O[C@@H]1C[C@]2(C)[C@H]3CC=C4[C@@H]5CC(C)(C)CC[C@]5(C(=O)NCc5ccccc5)CC[C@@]4(C)[C@]3(C)CC[C@H]2C(C)(C)[C@H]1OC(C)=O` [EM2], the EC50 (commonly the concentration that produces a half-maximal response) in data set [6] is 0.5 µM.

Regarding `C[C@H]1[C@H](C)CC[C@]2(C(=O)O)CC[C@]3(C)C(=CC[C@@H]4[C@@]5(C)C[C@@H](O)[C@H](O)[C@@](C)(CO)[C@@H]5CC[C@]43C)[C@H]12` [AA, 2α,3β,23-trihydroxyurs-12-ene-28-oic acid], the IC50 in the data set on A549 cells [7] was 41 ± 0.87 µM; with A2780 cells [8] it was 28.2 ± 0.3 µM; with HepG2 cells [9], 35.4 ± 1.47 µM; in [10] it was greater than 100 µM; in [11], 24.6 ± 3.26 µM; with MCF-7 cells [12] it was 68.5 ± 2.5 µM. In addition, it took 20.5 ± 4.06 µM to reach half-maximal inhibition in data set [13] (IC50).

For the molecule `CO[C@@H]1C[C@@]2(C)[C@@H](CC[C@]3(C)[C@@H]2CC=C2[C@@H]4[C@@H](C)[C@H](C)CC[C@]4(C(=O)NCc4ccccc4)CC[C@]23C)[C@](C)(C(=O)N(C)C)[C@H]1OC(C)=O` [Compound 14j, α-Methoxy-3β-Acetoxy-Urs-12-Ene-28-Benzyl Amide-23-Dimethylamide], the IC50 in the data set on HepG2 cells [1] was 3.77 ± 1.22 µM; in the data set on A2780 cells [2] it was 2.24 ± 0.52 µM; in data set [3] it was greater than 125 µM; with MCF-7 cells [4], 5.89 ± 1.33 µM; in [11], 1.83 ± 0.91 µM; in the data set on A549 cells [5], 6.72 ± 0.64 µM. Further, the concentration for half-maximal inhibition (IC50) with HL-60 cells was determined as 3.01 ± 0.44 µM. Further, the “cytotoxic effect on HUVEC cell viability” value in [3] is listed as “no cytotoxic effect”.

Take `CO[C@@H]1C[C@@]2(C)[C@@H](CC[C@]3(C)[C@@H]2CC=C2[C@@H]4[C@@H](C)[C@H](C)CC[C@]4(C(=O)NCc4ccccc4)CC[C@]23C)[C@](C)(C(=O)N2CCN(C)CC2)[C@H]1O` [Compound 13k, α-Methoxy-3β-Hydroxy-Urs-12-Ene-28-Benzylamide-23-(4-Methyl-1-Piperazinyl)-Amide]: the IC50 turned out to be 2.22 ± 0.68 µM in the data set with HepG2 cells [1]; 13 ± 1.18 µM in the data set with A2780 cells [2]; 2.85 ± 0.25 µM in the data set on MCF-7 cells [4]; 5.7 ± 0.58 µM in the data set with A549 cells [5]; 10.7 ± 2.08 µM in the data set with HL-60 cells.

On to `COC(=O)C(C)NC(=O)C1(C)C(OC(C)=O)C(OC)CC2(C)C1CCC1(C)C2CC=C2C3C(C)C(C)CCC3(C(=O)NCc3ccccc3)CCC21C` [Compound 14f, N-(2α-Methoxy-3β-Acetoxy-Urs-12-Ene-28-Benzylamide-23-oyl)-L-Alanine Methyl Ester], for which the values for the IC50 in data set [11] and in data set [13] were greater than 50 µM and greater than 100 µM, respectively.

On to `COC(=O)C(Cc1ccccc1)NC(=O)C1(C)C(OC(C)=O)C(OC)CC2(C)C1CCC1(C)C2CC=C2C3C(C)C(C)CCC3(C(=O)NCc3ccccc3)CCC21C` [Compound 14h, N-(2α-Methoxy-3β-Acetoxy-Urs-12-Ene-28-Benzylamide-23-Oyl)-L-Phenylalanine Methyl Ester], for which the concentration for half-maximal inhibition (IC50) in data set [11] and in data set [13] was greater than 100 µM each time.

For `COC(=O)C(NC(=O)C1(C)C(OC(C)=O)C(OC)CC2(C)C1CCC1(C)C2CC=C2C3C(C)C(C)CCC3(C(=O)NCc3ccccc3)CCC21C)C(C)C` [Compound 14g, N-(2α-Methoxy-3β-Acetoxy-Urs-12-Ene-28-Benzylamide-23-Oyl)-L-Valine Methyl Ester], the half-inhibitory concentration (IC50) in data set [11] and in data set [13] was greater than 100 µM throughout.

Regarding `COC(=O)[C@@]1(C)[C@@H]2CC[C@]3(C)[C@H](CC=C4[C@@H]5[C@@H](C)[C@H](C)CC[C@]5(C(=O)NCc5ccccc5)CC[C@]43C)[C@@]2(C)C[C@@H](OC)[C@@H]1OC(C)=O` [Compound 10, α-Methoxy-3β-Acetoxy-Urs-12-Ene-28-Benzylamide-23-Methyl Ester], the half-inhibitory concentration (IC50) was 1.43 ± 0.32 µM in the data set with HepG2 cells [1]; 1.28 ± 0.32 µM in the data set with A2780 cells [2]; greater than 125 µM in data set [3]; 3.99 ± 1.21 µM with MCF-7 cells [4]; 1.08 ± 0.66 µM in data set [11]; greater than 125 µM in the data set with A549 cells [5]. Besides, in the data set with HL-60 cells, half-maximal inhibition (IC50) required 0.47 ± 0.08 µM. Moreover, the “cytotoxic effect on HUVEC cell viability” value in data set [3] is “no cytotoxic effect”. Further, in data set [11] (relative to AA), the “fold more active than AA against HCT116 cell line” value is 23 fold.
